Earlier results, collected in patent US6878388B1, “Vanadium compounds for treating proliferative cell disorders” (Parker Hughes Institute, priority 2000, dated 2005).

Tests used:
pharyngonasal cancer = conditions: single assay, Sakurai et al. 1995; cited from earlier work
tumor cell growth = conditions: Kopf-Maier et al. 1983; cited from earlier work

Compound	activity against pharyngonasal cancer (pharyngonasal cancer)	effect on tumor cell growth (tumor cell growth)
O.O.O=S(=O)([O-])[O-].[O]=[V+2].c1cnc2c(c1)ccc1cccnc12 [[VO(Phen)(H2O)2](SO4), (diaqua)(1,10-phenanthroline)oxovanadium (IV) sulfate]	active	
Vanadocene dichloride [VDC]		arrest tumor cell growth
